Measurements from patent US8618137B2 (priority 2008, dated 2013).
Where two headings read alike, the source gives them in different places. Marks after values point to notes of the source that are not given here.

Tests used:
Format in all cases: in vivo
[1] = tested on: Plasmopara viticola (the causal agent of grape downy mildew); test: Test A: grape downy mildew, grape seedlings inoculated then sprayed with test suspension, visual disease rating; conditions: 100 = 100% disease control, 0 = no control relative to controls
Source text: General protocol for preparing test suspensions for Tests A-B2: The test compounds were first dissolved in acetone in an amount equal to 3% of the final volume and then suspended at the desired concentration (in ppm) in acetone and purified water (50/50 mix by volume) containing 250 ppm of the surfactant Trem® 014 (polyhydric alcohol esters). The resulting test suspensions were then used in Tests A-B2. Spraying a 200 ppm test suspension to the point of run-off on the test plants was the equivalent of a rate of 800 g/ha.
Grape seedlings were inoculated with a spore suspension of Plasmopara viticola (the causal agent of grape downy mildew) and incubated in a saturated atmosphere at 20° C. for 24 h. After a short drying period, the grape seedlings were sprayed with the test suspension to the point of run-off, then moved to a growth chamber at 20° C. for 5 days, and then back into a saturated atmosphere at 20° C. for 24 h. Upon removal, visual disease ratings were made.
Results for Tests A-B2 are given in Table A. In the Table, a rating of 100 indicates 100% disease control and a rating of 0 indicates no disease control (relative to the controls). All results are for 10 ppm except where followed by an “*” which indicates 40 ppm and “**” which indicates 200 ppm.

[2] = tested on: Phytophthora infestans (the causal agent of tomato late blight); conditions: sprayed 17 h after inoculation, 100 = 100% disease control, 0 = no control
[3] = tested on: Phytophthora infestans (the causal agent of tomato late blight); conditions: sprayed the day before inoculation, 100 = 100% disease control, 0 = no control
[4] = test suspension 10 ppm, listed as 2

Compound	Test A rating (disease control) ([1]; test suspension 10 ppm)	Test B2 rating (disease control) ([2]; test suspension 10 ppm)	Test B1 rating (disease control) ([3]; test suspension 10 ppm)	Test A rating (disease control) ([1]; test suspension 40 ppm (*))	Test B2 rating (disease control) ([2]; test suspension 40 ppm (*))	Test B1 rating (disease control) ([3]; test suspension 40 ppm (*))	further results
1-[4-[4-[5-(2,6-difluorophenyl)-4,5-dihydro-3-isoxazolyl]-2-thiazolyl]-1-piperidinyl]-2-(4,5-dihydro-3,5-dimethyl-1H-pyrazol-1-yl]ethanone [Compound 40]	100%	98%	100%	–	–	–	–
2,2,2-trifluoroacetaldehyde, O-[2-[4-[4-[5-(2,6-difluorophenyl)-4,5-dihydro-3-isoxazolyl]-2-thiazolyl]-1-piperidinyl]-2-oxoethyl]oxime [Compound 3]	100%	99%	100%	–	–	–	–
CC(C)=NOC(C(=O)N1CCC(c2nc(C3=NOC(c4c(F)cccc4F)C3)cs2)CC1)c1ccccc1 (mixture of isomers) [compound 32]	–	–	–	94* %	92* %	100* %	–
CCC(ON=C(C)C)C(=O)N1CCC(c2nc(C3=NOC(c4c(F)cccc4F)C3)cs2)CC1 (mixture of isomers) [compound 39]	–	–	–	100* %	99* %	100* %	–
CC(=NOCC(=O)N1CCC(c2nc(C3=NOC(c4c(F)cccc4F)C3)cs2)CC1)C(F)(F)F (racemic) [Compound 4]	100%	99%	100%	–	–	–	–
CCCC=NOCC(=O)N1CCC(c2nc(C3=NOC(c4c(F)cccc4F)C3)cs2)CC1 (racemic) [compound 10]	98%	88%	95%	–	–	–	–
CSC(=NOCC(=O)N1CCC(c2nc(C3=NOC(c4c(F)cccc4F)C3)cs2)CC1)C(=O)N(C)C (racemic) [compound 11]	0%	0%	26%	–	–	–	–
CSC(C)=NOCC(=O)N1CCC(c2nc(C3=NOC(c4c(F)cccc4F)C3)cs2)CC1 (racemic) [compound 12]	17%	0%	47%	–	–	–	–
CC(C)=NOCC(=O)N1CCC(c2nc(C3=NOC(c4ccccc4C)C3)cs2)CC1 (racemic) [compound 14]	100%	88%	98%	–	–	–	–
CCC(C)=NOCC(=O)N1CCC(c2nc(C3=NOC(c4c(F)cccc4F)C3)cs2)CC1 (racemic) [compound 16]	100%	99%	100%	–	–	–	–
O=C(CON=CC(Cl)(Cl)Cl)N1CCC(c2nc(C3=NOC(c4c(F)cccc4F)C3)cs2)CC1 (racemic) [compound 17]	66%	47%	97%	–	–	–	–
N#Cc1ccccc1C1CC(c2csc(C3CCN(C(=O)CON=CC(F)(F)F)CC3)n2)=NO1 (racemic) [compound 20]	100%	99%	100%	–	–	–	–
CC(C)=NOCCC(=O)N1CCC(c2nc(C3=NOC(c4c(F)cccc4F)C3)cs2)CC1 (racemic) [compound 21]	–	–	–	100* %	98* %	100* %	–
CC=NOCC(=O)N1CCC(c2nc(C3=NOC(c4c(F)cccc4F)C3)cs2)CC1 (racemic) [compound 22]	100%	99%	100%	–	–	–	–
CCC(=NOCC(=O)N1CCC(c2nc(C3=NOC(c4c(F)cccc4F)C3)cs2)CC1)C(F)(F)F (racemic) [compound 23]	98%	83%	99%	–	–	–	–
CC(CC(C)C)=NOCC(=O)N1CCC(c2nc(C3=NOC(c4c(F)cccc4F)C3)cs2)CC1 (racemic) [compound 25]	–	–	–	93* %	58* %	100* %	–
CC(CC(F)(F)F)=NOCC(=O)N1CCC(c2nc(C3=NOC(c4c(F)cccc4F)C3)cs2)CC1 (racemic) [compound 26]	100%	99%	100%	–	–	–	–
CC(C)C=NOCC(=O)N1CCC(c2nc(C3=NOC(c4c(F)cccc4F)C3)cs2)CC1 (racemic) [compound 27]	–	–	–	98* %	99* %	100* %	–
CC(C)CC=NOCC(=O)N1CCC(c2nc(C3=NOC(c4c(F)cccc4F)C3)cs2)CC1 (racemic) [compound 28]	–	–	–	98* %	68* %	95* %	–
CCC=NOCC(=O)N1CCC(c2nc(C3=NOC(c4c(F)cccc4F)C3)cs2)CC1 (racemic) [compound 30]	–	–	–	100* %	99* %	100* %	–
CC(C)(C)OC(=O)NCCC(=O)N1CCC(c2nc(C3=NOC(c4c(F)cccc4F)C3)cs2)CC1 (racemic) [compound 33]	–	–	–	–	–	–	Test A rating (disease control) ([1]; test suspension 200 ppm (**)): 0** %; Test B2 rating (disease control) ([2]; test suspension 200 ppm (**)): 0** %; Test B1 rating (disease control) ([3]; test suspension 200 ppm (**)): 68** %
O=C(CCNC(=O)C(F)(F)F)N1CCC(c2nc(C3=NOC(c4c(F)cccc4F)C3)cs2)CC1 (racemic) [compound 34]	–	–	–	–	–	–	Test A rating (disease control) ([1]; test suspension 200 ppm (**)): 33** %; Test B2 rating (disease control) ([2]; test suspension 200 ppm (**)): 40** %; Test B1 rating (disease control) ([3]; test suspension 200 ppm (**)): 97** %
O=C(CON=CC(F)(F)F)N1CCC(c2nc(C3=NOC(c4c(F)cccc4F)C3)cs2)CC1 (stereo not drawn) [Compound 3, 2,2,2-trifluoroacetaldehyde, O-[2-[4-[4-[5-(2,6-difluorophenyl)-4,5-dihydro-3-isoxazolyl]-2-thiazolyl]-1-piperidinyl]-2-oxoethyl]oxime]	100%	99%	100%	–	–	–	–
O=C(CON=C1CCCC1)N1CCC(c2nc(C3=NOC(c4c(F)cccc4F)C3)cs2)CC1 (stereo not drawn) [Compound 5]	95%	98%	95%	–	–	–	Test A rating (disease control) [1, 4]: 100%; Test B2 rating (disease control) [2, 4]: 100%; Test B1 rating (disease control) [3, 4]: 100%
C[C@H](c1ccccc1)N(C)C(=O)c1csc(C2CCN(C(=O)CON=CC(F)(F)F)CC2)n1 [Compound 31, N-methyl-N-[(1R)-1-phenylethyl]-2-[1-[2-[[(2,2,2-trifluoroethylidene)amino]oxy]acetyl]-4-piperidinyl]-4-thiazolecarboxamide]	–	–	–	100* %	99* %	100* %	–
CN(CC(=O)N1CCC(c2nc(C3=NOC(c4c(F)cccc4F)C3)cs2)CC1)N=CC(F)(F)F (stereo not drawn) [Compound 35]	–	–	–	100* %	99* %	100* %	–
CN(CC(=O)N1CCC(c2nc(C3=NOC(c4c(F)cccc4F)C3)cs2)CC1)NC(=O)C(F)(F)F (stereo not drawn) [Compound 36, 2,2,2-trifluoroacetic acid 2-[2-[4-[5-(2,6-difluorophenyl)-4,5-dihydro-3-isoxazolyl]-2-thiazolyl-1-piperidinyl]-2-oxoethyl]-2-methylhydrazide]	–	–	–	–	–	–	Test A rating (disease control) ([1]; test suspension 200 ppm (**)): 60** %; Test B2 rating (disease control) ([2]; test suspension 200 ppm (**)): 93** %; Test B1 rating (disease control) ([3]; test suspension 200 ppm (**)): 100** %
O=C(CONC(=O)C(F)(F)F)N1CCC(c2nc(C3=NOC(c4c(F)cccc4F)C3)cs2)CC1 (stereo not drawn) [Compound 38]	98%	90%	90%	99* %	99* %	100* %	–
CC1=NN(CC(=O)N2CCC(c3nc(C4=NOC(c5c(F)cccc5F)C4)cs3)CC2)C(C)C1 (stereo not drawn) [Compound 40, 1-[4-[4-[5-(2,6-difluorophenyl)-4,5-dihydro-3-isoxazolyl]-2-thiazolyl]-1-piperidinyl]-2-(4,5-dihydro-3,5-dimethyl-1H-pyrazol-1-yl]ethanone]	–	–	–	97* %	99* %	100* %	–
CC(C)=NOCC(=O)N1CCC(c2nc(C3=NOC4(CCc5ccccc54)C3)cs2)CC1 (stereo not drawn) [compound 13]	99%	99%	99%	–	–	–	–
